Measured values as given in ChEMBL document CHEMBL3352542, “Synthesis, biological evaluation and molecular modeling study of 2-(1,3,4-thiadiazolyl-thio and 4-methyl-thiazolyl-thio)-quinazolin-4-ones as a new class of DHFR inhibitors” (Bioorg Med Chem Lett, 2014).
Activity calls are given as the source filed them. The rule behind the calls is not given here.

How the values were obtained:
Dihydrofolate reductase = target: T1, Dihydrofolate reductase (Bos taurus, UniProt P00376); experiment: Inhibition of bovine liver DHFR
T1 sequence (P00376 whole entry): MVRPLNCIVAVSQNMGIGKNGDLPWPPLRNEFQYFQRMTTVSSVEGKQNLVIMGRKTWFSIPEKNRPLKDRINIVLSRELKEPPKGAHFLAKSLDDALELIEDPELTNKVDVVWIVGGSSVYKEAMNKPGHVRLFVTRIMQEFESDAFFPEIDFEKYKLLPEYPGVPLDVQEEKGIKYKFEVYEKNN

Staphylococcus aureus [1] = experiment: Antimicrobial activity against Staphylococcus aureus assessed as inhibition zone at 200 ug/disk after 24 hrs by disc-diffusion method; type: functional; conditions: read-out: IZ
Bacillus subtilis [2] = experiment: Antimicrobial activity against Bacillus subtilis assessed as inhibition zone at 200 ug/disk after 24 hrs by disc-diffusion method; type: functional; conditions: read-out: IZ
Escherichia coli = experiment: Antimicrobial activity against Escherichia coli assessed as inhibition zone at 200 ug/disk after 24 hrs by disc-diffusion method; type: functional; conditions: read-out: IZ
Pseudomonas aeruginosa = experiment: Antimicrobial activity against Pseudomonas aeruginosa assessed as inhibition zone at 200 ug/disk after 24 hrs by disc-diffusion method; type: functional; conditions: read-out: IZ
Candida albicans = experiment: Antimicrobial activity against Candida albicans assessed as inhibition zone at 200 ug/disk after 24 hrs by disc-diffusion method; type: functional; conditions: read-out: IZ
Staphylococcus aureus [3] = experiment: Antimicrobial activity against Staphylococcus aureus assessed as inhibition of visible growth after 24 hrs by disc-diffusion method; type: functional, organism-based
Bacillus subtilis [4] = experiment: Antimicrobial activity against Bacillus subtilis assessed as inhibition of visible growth after 24 hrs by disc-diffusion method; type: functional, organism-based
CCRF-CEM = experiment: Growth inhibition of human CCRF-CEM cells at 10 uM after 48 hrs; type: functional; conditions: read-out: GI
K562 = experiment: Growth inhibition of human K562 cells at 10 uM after 48 hrs; type: functional; conditions: K562, 48 h, read-out: GI
[5] = Growth inhibition of human MOLT4 cells at 10 uM after 48 hrs; type: functional; conditions: MOLT-4, 48 h, read-out: GI
[6] = Growth inhibition of human RPMI8226 cells at 10 uM after 48 hrs; type: functional; conditions: RPMI-8226, 48 h, read-out: GI
SR = experiment: Growth inhibition of human SR cells at 10 uM after 48 hrs; type: functional; conditions: read-out: GI
A549 = experiment: Growth inhibition of human A549 cells at 10 uM after 48 hrs; type: functional; conditions: A549, 48 h, read-out: GI
[7] = Growth inhibition of human HOP92 cells at 10 uM after 48 hrs; type: functional; conditions: HOP-92, 48 h, read-out: GI
NCI-H226 = experiment: Growth inhibition of human NCI-H226 cells at 10 uM after 48 hrs; type: functional; conditions: NCI-H226, 48 h, read-out: GI
NCI-H23 = experiment: Growth inhibition of human NCI-H23 cells at 10 uM after 48 hrs; type: functional; conditions: NCI-H23, 48 h, read-out: GI
[8] = Growth inhibition of human HCT116 cells at 10 uM after 48 hrs; type: functional; conditions: HCT-116, 48 h, read-out: GI
[9] = Growth inhibition of human HCT15 cells at 10 uM after 48 hrs; type: functional; conditions: HCT-15, 48 h, read-out: GI
KM12 = experiment: Growth inhibition of human KM12 cells at 10 uM after 48 hrs; type: functional; conditions: KM12, 48 h, read-out: GI
SF-268 = experiment: Growth inhibition of human SF268 cells at 10 uM after 48 hrs; type: functional; conditions: SF-268, 48 h, read-out: GI
[10] = Growth inhibition of human SF295 cells at 10 uM after 48 hrs; type: functional; conditions: SF-295, 48 h, read-out: GI
[11] = Growth inhibition of human SF539 cells at 10 uM after 48 hrs; type: functional; conditions: SF-539, 48 h, read-out: GI
SNB-75 = experiment: Growth inhibition of human SNB75 cells at 10 uM after 48 hrs; type: functional; conditions: SNB-75, 48 h, read-out: GI
U-251 = experiment: Growth inhibition of human U251 cells at 10 uM after 48 hrs; type: functional; conditions: U-251, 48 h, read-out: GI
[12] = Growth inhibition of human LOXIMVI cells at 10 uM after 48 hrs; type: functional; conditions: LOX IMVI, read-out: GI
M14 = experiment: Growth inhibition of human M14 cells at 10 uM after 48 hrs; type: functional; conditions: M14, 48 h, read-out: GI
SK-MEL-5 = experiment: Growth inhibition of human SK-MEL-5 cells at 10 uM after 48 hrs; type: functional; conditions: SK-MEL-5, 48 h, read-out: GI
[13] = Growth inhibition of human UACC257 cells at 10 uM after 48 hrs; type: functional; conditions: UACC-257, 48 h, read-out: GI
[14] = Growth inhibition of human UACC62 cells at 10 uM after 48 hrs; type: functional; conditions: UACC-62, 48 h, read-out: GI
[15] = Growth inhibition of human OVCAR3 cells at 10 uM after 48 hrs; type: functional; conditions: OVCAR-3, 48 h, read-out: GI
[16] = Growth inhibition of human OVCAR4 cells at 10 uM after 48 hrs; type: functional; conditions: OVCAR-4, 48 h, read-out: GI
[17] = Growth inhibition of human OVCAR8 cells at 10 uM after 48 hrs; type: functional; conditions: OVCAR-8, 48 h, read-out: GI
[18] = Growth inhibition of human NCI-ADR-RES cells at 10 uM after 48 hrs; type: functional; conditions: read-out: GI
A498 = experiment: Growth inhibition of human A498 cells at 10 uM after 48 hrs; type: functional; conditions: A498, 48 h, read-out: GI
ACHN = experiment: Growth inhibition of human ACHN cells at 10 uM after 48 hrs; type: functional; conditions: read-out: GI
CAKI-1 = experiment: Growth inhibition of human CAKI-1 cells at 10 uM after 48 hrs; type: functional; conditions: CAKI-1, 48 h, read-out: GI
[19] = Growth inhibition of human RXF393 cells at 10 uM after 48 hrs; type: functional; conditions: RXF 393, 48 h, read-out: GI
[20] = Growth inhibition of human UO31 cells at 10 uM after 48 hrs; type: functional; conditions: UO-31, 48 h, read-out: GI
[21] = Growth inhibition of human PC3 cells at 10 uM after 48 hrs; type: functional; conditions: PC-3, 48 h, read-out: GI
MCF7 = experiment: Growth inhibition of human MCF7 cells at 10 uM after 48 hrs; type: functional; conditions: MCF7, 48 h, read-out: GI
MDA-MB-231 = experiment: Growth inhibition of human MDA-MB-231 cells at 10 uM after 48 hrs; type: functional; conditions: MDA-MB-231, 48 h, read-out: GI
[22] = Growth inhibition of human Hs 578T cells at 10 uM after 48 hrs; type: functional; conditions: read-out: GI
T47D = experiment: Growth inhibition of human T47D cells at 10 uM after 48 hrs; type: functional; conditions: read-out: GI
MDA-MB-468 = experiment: Growth inhibition of human MDA-MB-468 cells at 10 uM after 48 hrs; type: functional; conditions: MDA-MB-468, 48 h, read-out: GI

Cc1ccc2nc(Sc3sc(N)nc3C)n(Cc3ccccc3)c(=O)c2c1
IC50 (Dihydrofolate reductase): 5 µM | zone of inhibition at 200 µg/disc (Staphylococcus aureus [1]): 18 mm | zone of inhibition at 200 µg/disc (Bacillus subtilis [2]): 21 mm | zone of inhibition at 200 µg/disc (Escherichia coli): 8 mm | zone of inhibition at 200 µg/disc (Pseudomonas aeruginosa): 8 mm | zone of inhibition at 200 µg/disc (Candida albicans): 12 mm | Activity (Staphylococcus aureus [3]): Active | Activity (Bacillus subtilis [4]): Active | inhibition of growth at 10 µM (CCRF-CEM): 14.9% | inhibition of growth at 10 µM (K562): 17.4% | inhibition of growth at 10 µM [5]: 34.2% | inhibition of growth at 10 µM [6]: 28.1% | inhibition of growth at 10 µM (SR): 19% | inhibition of growth at 10 µM (A549): 22.1% | inhibition of growth at 10 µM [7]: 50.2% | inhibition of growth at 10 µM (NCI-H226): 22.7% | inhibition of growth at 10 µM (NCI-H23): 19.2% | inhibition of growth at 10 µM [8]: 20.7% | inhibition of growth at 10 µM [9]: 13.5% | inhibition of growth at 10 µM (KM12): 18.8% | inhibition of growth at 10 µM (SF-268): 10.8% | inhibition of growth at 10 µM [10]: 21.9% | inhibition of growth at 10 µM [11]: 15.1% | inhibition of growth at 10 µM (SNB-75): 22.7% | inhibition of growth at 10 µM (U-251): 12.2% | inhibition of growth at 10 µM [12]: 19.5% | inhibition of growth at 10 µM (M14): 10.3% | inhibition of growth at 10 µM (SK-MEL-5): 25.8% | inhibition of growth at 10 µM [13]: 11.6% | inhibition of growth at 10 µM [14]: 22.8% | inhibition of growth at 10 µM [15]: 19.2% | inhibition of growth at 10 µM [16]: 18.7% | inhibition of growth at 10 µM [17]: 16% | inhibition of growth at 10 µM [18]: 20.3% | inhibition of growth at 10 µM (A498): 21.9% | inhibition of growth at 10 µM (ACHN): 19.8% | inhibition of growth at 10 µM (CAKI-1): 13.7% | inhibition of growth at 10 µM [19]: 17.8% | inhibition of growth at 10 µM [20]: 35.5% | inhibition of growth at 10 µM [21]: 34.5% | inhibition of growth at 10 µM (MCF7): 10.7% | inhibition of growth at 10 µM (MDA-MB-231): 14.2% | inhibition of growth at 10 µM [22]: 19.4% | inhibition of growth at 10 µM (T47D): 23.9% | inhibition of growth at 10 µM (MDA-MB-468): 30.1%
